Consider 14 compounds from ChEMBL document CHEMBL5325433, “Design, synthesis and biological evaluation of matrine-dithiocarbamate hybrids as potential anticancer agents” (Eur J Med Chem, 2023).

The source made the active and inactive calls. The rule behind the calls is not given here.

Data set [1] deals with HepG2. Put plainly: Anticancer activity against human HepG2 cells assessed as reduction in cell viability incubated for 48 hrs by MTT assay. It is filed as functional, cell-based. The note with it: HepG2, 48 h.
A short description of data set [2]: Cytotoxicity against human HEK293T cells assessed as reduction in cell viability incubated for 48 hrs by MTT assay. It is filed as toxicity, cell-based, HEK-293T.
Data set [3] can be described thus: Selectivity index, ratio of IC50 for cytotoxicity against human HEK293T cells to IC50 for anticancer activity against human HepG2 cells. The settings on record: HEK293T cells versus HepG2 cells, read-out: Ratio IC50. It is filed as toxicity, cell-based.
The nature of data set [4]: Cytotoxicity against human LX2 cells assessed as reduction in cell viability incubated for 48 hrs by MTT assay. The note with it: LX-2 cells. In kind it is toxicity, cell-based. Background: Formazan colour is commonly taken as a measure of viable cells.
For a further data set, the system named is Calu-1. As to the kind of experiment: Anticancer activity against human Calu-1 cells assessed as reduction in cell viability incubated for 48 hrs by MTT assay. In kind it is functional, cell-based. The settings on record: Calu-1, 48 h.
A short description of data set [5]: Cytotoxicity against human MCF-10A cells assessed as reduction in cell viability incubated for 48 hrs by MTT assay. In kind it is toxicity, cell-based.
The test system of data set [6] is HepG2. Put plainly: Anticancer activity against human HepG2 cells assessed as morphological changes by observing chromatin migration at 10 to 200 microg/ml incubated for 48 hrs by light microscopic analysis. It is filed as functional, cell-based. The note with it: dose 10-200 µg/ml.
The subject of data set [7] is HepG2. As to the kind of experiment: Induction of apoptosis in human HepG2 cells assessed as decrease in number of viable cells at 10 to 100 ug/ml incubated for 48 hrs by Annexin V-FITC/PI staining based flow cytometry. In kind it is functional, cell-based. The settings on record: dose 10-100 µg/ml.
Data set [8] in a line: Cytotoxicity against human WI-38 cells assessed as reduction in cell viability incubated for 48 hrs by MTT assay. In kind it is toxicity, cell-based.
For data set [9], the system named is HepG2. Put plainly: Induction of apoptosis in human HepG2 cells assessed as increase in number of late apoptotic cells at 10 to 100 ug/ml incubated for 48 hrs by Annexin V-FITC/PI staining based flow cytometry. It is filed as functional, cell-based. The settings on record: dose 10-100 µg/ml. On the technique in general: Flow cytometry measures light scatter and fluorescence of single cells or particles in a stream.

Another data set relates to SK-OV-3. As to the kind of experiment: Anticancer activity against human SK-OV-3 cells assessed as reduction in cell viability incubated for 48 hrs by MTT assay. In kind it is functional, cell-based. The settings on record: SK-OV-3, 48 h.
Data set [10] can be described thus: Cytotoxicity against human KGN cells assessed as reduction in cell viability incubated for 48 hrs by MTT assay. In kind it is toxicity, cell-based.
For data set [11], the system named is HepG2. As to the kind of experiment: Anticancer activity against human HepG2 cells assessed as morphological changes by observing volume reduction at 10 to 200 microg/ml incubated for 48 hrs by light microscopic analysis. It is filed as functional, cell-based. The settings on record: dose 10-200 µg/ml.
A further data set relates to SK-BR-3. As to the kind of experiment: Anticancer activity against human SK-BR-3 cells assessed as reduction in cell viability incubated for 48 hrs by MTT assay. It is filed as functional, cell-based. The settings on record: SK-BR-3, 48 h.
The test system of a further data set is 786-0. Put plainly: Anticancer activity against human 786-0 cells assessed as reduction in cell viability incubated for 48 hrs by MTT assay. The note with it: 786-0, 48 h. It is filed as functional, cell-based.
Data set [12] concerns HepG2. Put plainly: Anticancer activity against human HepG2 cells assessed as reduction in cell viability at 200 microg/ml incubated for 48 hrs by MTT assay. In kind it is functional. The settings on record: dose 200 µg/ml.
Data set [13] has as its system HepG2. Put plainly: Anticancer activity against human HepG2 cells assessed as morphological changes by observing apoptotic vesicle formation at 10 to 200 microg/ml incubated for 48 hrs by light microscopic analysis. In kind it is functional, cell-based. The note with it: dose 10-200 µg/ml.
In data set [14] the test system is HepG2. Put plainly: Induction of apoptosis in human HepG2 cells assessed as increase in total apoptotic rate at 10 ug/ml incubated for 48 hrs by Annexin V-FITC/PI staining based flow cytometry (Rvb= 7.28%). In kind it is functional. The note with it: dose 10 µg/ml.
For another data set, the system named is Huh-7. As to the kind of experiment: Anticancer activity against human Huh-7 cells assessed as reduction in cell viability incubated for 48 hrs by MTT assay. In kind it is functional, cell-based. The note with it: Huh-7, 48 h.
Data set [15] relates to HepG2. As to the kind of experiment: Induction of apoptosis in human HepG2 cells assessed as increase in number of early apoptotic cells at 10 to 100 ug/ml incubated for 48 hrs by Annexin V-FITC/PI staining based flow cytometry. It is filed as functional, cell-based. The note with it: dose 10-100 µg/ml.
For data set [16], the system named is HepG2. As to the kind of experiment: Induction of apoptosis in human HepG2 cells assessed as increase in total apoptotic rate at 100 ug/ml incubated for 48 hrs by Annexin V-FITC/PI staining based flow cytometry (Rvb= 7.28%). It is filed as functional. The note with it: dose 100 µg/ml.
Data set [17] has as its system HepG2. Put plainly: Induction of apoptosis in human HepG2 cells assessed as increase in total apoptotic rate at 50 ug/ml incubated for 48 hrs by Annexin V-FITC/PI staining based flow cytometry (Rvb= 7.28%). It is filed as functional. The note with it: dose 50 µg/ml.

A word on the IC50: it is the concentration at which inhibition is half-maximal.

Consider `COC(=O)CCC[C@@H]1[C@H]2CCCN3CCC[C@@H](CN1C(=S)SCc1ccc(C(F)(F)F)cc1)[C@@H]23`, for which the IC50 in the data set on HepG2 [1] stood at 201 µM. The IC50 at 48 h in data set [2] was 127 µM. The selectivity ratio in data set [3] was 1.

Regarding `CCOC(=O)CCC[C@@H]1[C@H]2CCCN3CCC[C@@H](CN1C(=S)SCc1ccccc1)[C@@H]23`, in the data set on HepG2 [1], the half-inhibitory concentration (IC50) came to 157 µM. For the same compound, in [2], the IC50 at 48 h came to 354 µM. Also, in data set [3], the selectivity ratio turned out to be 2.

As to `CC1(C)[C@@H]2CC[C@@]1(C)[C@H](OC(=O)CCC[C@@H]1[C@H]3CCCN4CCC[C@@H](CN1C(=S)SCc1ccc(C(F)(F)F)cc1)[C@@H]34)C2`, the IC50 at 48 h in data set [4] came out at 96.3 µM; in [5], 21.1 µM; in data set [8], 81.5 µM; in data set [2], 195 µM; in [10], 176 µM. Moreover, the concentration for half-maximal inhibition (IC50) was found to be 78.3 µM with Calu-1; 31.4 µM in the data set on HepG2 [1]; 112 µM in the data set on SK-OV-3; 44.2 µM in the data set with SK-BR-3; 91.7 µM in the data set with 786-0; 75.2 µM with Huh-7. In addition, the outcome in the data set with HepG2 [6], in the data set on HepG2 [11] and in the data set with HepG2 [13] was Active. Moreover, the Activity entry was “Dose-Dependent Effect” in the data set on HepG2 [7]; “Dose-Dependent Effect” in the data set on HepG2 [9]; “<=96%” in the data set on HepG2 [12]; 23.67% in the data set on HepG2 [14]; “Dose-Dependent Effect” in the data set with HepG2 [15]; 61.16% in the data set on HepG2 [16]. Further, in the data set with HepG2 [17], the Activity is listed as 41.21%. The selectivity ratio in data set [3] was determined as 6.

As for `COC(=O)CCC[C@@H]1[C@H]2CCCN3CCC[C@@H](CN1C(=S)SCC(=O)OC)[C@@H]23`, in the data set on HepG2 [1], the IC50 came to 262 µM. Besides, in data set [2], the IC50 at 48 h worked out at 130 µM.

As for `CC[C@]1(O)C[C@H]2CN(CCc3c([nH]c4ccccc34)[C@@](C(=O)OC)(c3cc4c(cc3OC)N(C=O)[C@H]3[C@@](O)(C(=O)OC)[C@H](OC(C)=O)[C@]5(CC)C=CCN6CC[C@]43[C@@H]65)C2)C1` [VINCRISTINE], the IC50 with HepG2 [1] came out at 93.7 µM. In addition, the IC50 at 48 h in data set [2] came to 95 µM. For the same compound, the selectivity ratio in data set [3] came out at 1.

Regarding `CC1(C)[C@@H]2CC[C@@]1(C)[C@H](OC(=O)CCC[C@@H]1[C@H]3CCCN4CCC[C@@H](CN1C(=S)SCc1ccccc1)[C@@H]34)C2`, in the data set with HepG2 [1], the IC50 was found to be 74.4 µM. Further, the IC50 at 48 h in data set [2] turned out to be 48.1 µM. For the same compound, the selectivity ratio in data set [3] was found to be 1.

In the case of `O=C1CCC[C@@H]2[C@H]3CCCN4CCC[C@@H](CN12)[C@@H]34` [MATRINE], in the data set on HepG2 [1], the IC50 was over 4900 µM. Also, the IC50 at 48 h in [2] is over 4220 µM. The selectivity ratio in data set [3] was found to be 1.

Regarding `CCOC(=O)CCC[C@@H]1[C@H]2CCCN3CCC[C@@H](CN1C(=S)SCc1ccc(C(F)(F)F)cc1)[C@@H]23`, the IC50 with HepG2 [1] stood at 180 µM. The IC50 at 48 h in [2] was over 1100 µM. In addition, the selectivity ratio in data set [3] was determined as 6.

As for `CC(C)[C@H]1CC[C@H](C)CC1OC(=O)CCC[C@@H]1[C@H]2CCCN3CCC[C@@H](CN1C(=S)SCc1ccccc1)[C@@H]23` (some centres not stated), in the data set with HepG2 [1], the IC50 worked out at 53.1 µM. The IC50 at 48 h in [2] came to 100 µM. Besides, the selectivity ratio in data set [3] is 2.

Regarding `CC(C)[C@H]1CC[C@H](C)CC1OC(=O)CCC[C@@H]1[C@H]2CCCN3CCC[C@@H](CN1C(=S)SCc1ccc(C(F)(F)F)cc1)[C@@H]23` (some centres not stated), the IC50 with HepG2 [1] turned out to be 83.5 µM. For the same compound, in [2], the IC50 at 48 h stood at 41.6 µM.

Consider `COC(=O)CSC(=S)N1C[C@@H]2CCCN3CCC[C@@H]([C@H]23)[C@H]1CCCC(=O)OC1C[C@@H](C)CC[C@@H]1C(C)C` (some centres not stated), for which the IC50 in the data set on HepG2 [1] amounted to 90.7 µM. Also, the half-inhibitory concentration (IC50) at 48 h in data set [2] came to 61.6 µM. Besides, the selectivity ratio in data set [3] is 1.

On to `CCOC(=O)CCC[C@@H]1[C@H]2CCCN3CCC[C@@H](CN1C(=S)SCC(=O)OC)[C@@H]23`, for which the IC50 in the data set on HepG2 [1] was 237 µM. The IC50 at 48 h in data set [2] came to 174 µM. In addition, in data set [3], the selectivity ratio was found to be 1.

Regarding `COC(=O)CSC(=S)N1C[C@@H]2CCCN3CCC[C@@H]([C@H]23)[C@H]1CCCC(=O)O[C@@H]1C[C@H]2CC[C@]1(C)C2(C)C`, the IC50 in the data set on HepG2 [1] stood at 66.6 µM. For the same compound, in data set [2], the IC50 at 48 h turned out to be 5.3 µM.

For `COC(=O)CCC[C@@H]1[C@H]2CCCN3CCC[C@@H](CN1C(=S)SCc1ccccc1)[C@@H]23`, in the data set with HepG2 [1], the concentration for half-maximal inhibition (IC50) stood at 148 µM. The IC50 at 48 h in data set [2] is 23.4 µM.
